Read-outs that look alike come from different tables or passages of the source.
Key:
[1] = target: cdk4/D (Homo sapiens, UniProt P11802); test: Cyclin-Dependent Kinase 4 (cdk4) Assay; type: biochemical; settings: read-out: cdk4/D IC50
[2] = target: Cdk5/p25 (Homo sapiens, UniProt Q00535); test: Cyclin-Dependent Kinase 5 High Throughput Screening (cdk5-HTS) Assay; type: biochemical; settings: high throughput screen
Procedure, shortened: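 IC50 determined from 33P incorporation into GST-RbCOOH captured on glutathione plates and read by scintillation counting. Reaction: 1.0 μg/mL Cdk5/p25, 20 μM [γ33P]ATP, pH 7.4 Tris buffer with MgCl2 and DTT, 30 min at room temperature, stopped with EDTA.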

[3] = target: cdk2/cyclinA (Homo sapiens, UniProt P24941); test: Cyclin-Dependent Kinase Assay cdk2/cyclinA
[4] = target: cdc2/cyclinB (Homo sapiens, UniProt P06493); test: Cyclin-Dependent Kinase Assay cdc2/cyclinB
[5] = target: cdk2/cyclinE (Homo sapiens, UniProt P24941); test: Cyclin-Dependent Kinase Assay cdk2/cyclinE

Sequence of cdk4/D (P11802 whole entry): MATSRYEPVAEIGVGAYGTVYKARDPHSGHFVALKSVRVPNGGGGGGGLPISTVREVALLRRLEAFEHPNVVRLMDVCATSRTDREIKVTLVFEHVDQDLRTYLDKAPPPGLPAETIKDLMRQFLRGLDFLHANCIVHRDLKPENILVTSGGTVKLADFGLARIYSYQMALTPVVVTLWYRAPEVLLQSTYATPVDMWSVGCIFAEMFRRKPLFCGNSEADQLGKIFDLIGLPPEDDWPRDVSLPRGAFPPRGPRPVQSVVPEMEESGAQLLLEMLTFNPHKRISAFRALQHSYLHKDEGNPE
Sequence of cdk4/D (P24385 whole entry, further chain): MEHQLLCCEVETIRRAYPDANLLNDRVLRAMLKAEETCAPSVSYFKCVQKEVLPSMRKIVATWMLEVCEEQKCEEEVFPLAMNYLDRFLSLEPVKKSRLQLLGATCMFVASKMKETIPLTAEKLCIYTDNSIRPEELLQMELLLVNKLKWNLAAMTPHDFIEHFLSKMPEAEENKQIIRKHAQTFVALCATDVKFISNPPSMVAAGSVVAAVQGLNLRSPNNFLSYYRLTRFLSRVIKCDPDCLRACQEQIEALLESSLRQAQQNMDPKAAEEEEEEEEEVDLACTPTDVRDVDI
Sequence of cdc2/cyclinB (P06493 whole entry): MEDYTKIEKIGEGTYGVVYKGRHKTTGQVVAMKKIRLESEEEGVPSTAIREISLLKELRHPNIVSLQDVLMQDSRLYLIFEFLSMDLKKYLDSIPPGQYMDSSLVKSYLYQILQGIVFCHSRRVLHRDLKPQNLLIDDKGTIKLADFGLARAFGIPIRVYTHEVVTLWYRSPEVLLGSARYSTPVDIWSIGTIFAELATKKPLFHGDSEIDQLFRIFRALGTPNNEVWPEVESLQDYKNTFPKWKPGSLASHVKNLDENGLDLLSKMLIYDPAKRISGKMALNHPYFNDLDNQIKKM
Sequence of cdc2/cyclinB (P14635 whole entry, further chain): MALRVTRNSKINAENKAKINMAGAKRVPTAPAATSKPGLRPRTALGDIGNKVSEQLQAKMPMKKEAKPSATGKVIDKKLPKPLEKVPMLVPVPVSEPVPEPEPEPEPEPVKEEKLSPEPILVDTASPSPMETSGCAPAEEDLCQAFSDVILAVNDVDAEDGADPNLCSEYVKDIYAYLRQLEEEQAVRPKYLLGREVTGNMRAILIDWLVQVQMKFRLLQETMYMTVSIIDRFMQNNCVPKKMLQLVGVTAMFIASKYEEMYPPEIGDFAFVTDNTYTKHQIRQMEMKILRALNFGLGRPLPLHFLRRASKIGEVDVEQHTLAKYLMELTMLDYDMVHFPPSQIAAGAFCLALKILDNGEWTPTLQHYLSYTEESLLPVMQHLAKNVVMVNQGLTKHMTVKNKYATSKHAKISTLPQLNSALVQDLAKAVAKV

IC50 [1] [nM]	IC50 [2] [nM]	IC50 ([3]; cdk2/A IC50) [nM]	IC50 [4] [nM]	IC50 ([5]; cdk2/E IC50) [nM]	Compound	IC50 ([3]; read-out: cdk2/A IC50) [nM]	IC50 ([4]; read-out: cdk1/B IC50) [nM]	IC50 ([5]; read-out: cdk2/E IC50) [nM]
1200	310	1300	700	560	CCCn1c(=O)ccc2cnc(Nc3ccc(F)c([N+](=O)[O-])c3)nc21 [Example 351, 2-(4-Fluoro-3-nitro-phenylamino)-8-propyl-8H-pyrido[2,3-d]pyrimidin-7-one]	–	–	–
12.7	36.3	74	34.5	46.5	O=c1ccc2cnc(Nc3ccc4[nH]ccc4c3)nc2n1C1CCCC1 [Example 528, 8-Cyclopentyl-2-(1H-indol-5-ylamino)-8H-pyrido[2,3-d]pyrimidin-7-one]	–	–	–
140	46.5	84	43	27.3	CCCCn1c(=O)ccc2cnc(Nc3ccc4[nH]ncc4c3)nc21 [Example 379, 8-Butyl-2-(1H-indazol-5-ylamino)-8H-pyrido[2,3-d]pyrimidin-7-one]	–	–	–
71.5	53	250	82	86.5	CCCn1c(=O)ccc2cnc(Nc3ccc4[nH]ccc4c3)nc21 [Example 323, 2-(1H-Indol-5-ylamino)-8-propyl-8H-pyrido[2,3-d]pyrimidin-7-one]	–	–	–
2600	260	670	710	100	O=c1ccc2cnc(Nc3cc(F)c(F)c(F)c3)nc2n1CC1CC1 [Example 588, 8-Cyclopropylmethyl-2-(3,4,5-trifluoro-phenylamino)-8H-pyrido[2,3-d]pyrimidin-7-one]	–	–	–
540	230	330	330	280	O=c1ccc2cnc(Nc3cc(F)cc(F)c3)nc2n1CC1CC1 [Example 575, 8-Cyclopropylmethyl-2-(3,5-difluoro-phenylamino)-8H-pyrido[2,3-d]pyrimidin-7-one]	–	–	–
230	92	120	120	110	O=c1[nH]c2ccc(Nc3ncc4ccc(=O)n(CC5CC5)c4n3)cc2[nH]1 [Example 577, 8-Cyclopropylmethyl-2-(2-oxo-2,3-dihydro-1H-benzimidazol-5-ylamino)-8H-pyrido[2,3-d]pyrimidin-7-one]	–	–	–
810	81	365	350	147	CCn1c(=O)ccc2cnc(Nc3ccc4[nH]nnc4c3)nc21 [Example 287, 2-(1H-Benzotriazol-5-ylamino)-8-ethyl-8H-pyrido[2,3-d]pyrimidin-7-one]	–	–	–
214	32	145	82.5	53	CCCn1c(=O)ccc2cnc(Nc3ccc4[nH]ncc4c3)nc21 [Example 324, 2-(1H-Indazol-5-ylamino)-8-propyl-8H-pyrido[2,3-d]pyrimidin-7-one]	–	–	–
510	201	1100	313	228	CCCCn1c(=O)ccc2cnc(Nc3ccc(C)c(C)c3)nc21 [Example 377, 8-Butyl-2-(3,4-dimethyl-phenylamino)-8H-pyrido[2,3-d]pyrimidin-7-one]	–	–	–

More lines, now with the values behind:

Compound	IC50 [1] [nM]	IC50 [2] [nM]	IC50 ([3]; cdk2/A IC50) [nM]	IC50 [4] [nM]	IC50 ([5]; cdk2/E IC50) [nM]	IC50 ([3]; read-out: cdk2/A IC50) [nM]	IC50 ([4]; read-out: cdk1/B IC50) [nM]	IC50 ([5]; read-out: cdk2/E IC50) [nM]
2-(4-Bromo-3-trifluoromethyl-phenylamino)-8-cyclopentyl-8H-pyrido[2,3-d]pyrimidin-7-one [Example 561]	480	440	–	–	–	220	350	150
CCCCn1c(=O)ccc2cnc(Nc3ccc(OC)c(OC)c3)nc21 [Example 386, 8-Butyl-2-(3,4-dimethoxy-phenylamino)-8H-pyrido[2,3-d]pyrimidin-7-one]	620	23.5	200	83	90.7	–	–	–
CCCCn1c(=O)ccc2cnc(Nc3ccc(F)c(F)c3)nc21 [Example 397, 8-Butyl-2-(3,4-difluoro-phenylamino)-8H-pyrido[2,3-d]pyrimidin-7-one]	250	81	310	290	75	–	–	–
CC(C)(C)OC(=O)Nc1ccc(Nc2ncc3ccc(=O)n(C4CCCC4)c3n2)cc1 [Example 535, [4-(8-Cyclopentyl-7-oxo-7,8-dihydro-pyrido[2,3-d]pyrimidin-2-ylamino)-phenyl]-carbamic acid tert-butyl ester]	63.5	74	220	145	88.7	–	–	–
CCC(C)n1c(=O)ccc2cnc(Nc3ccc(C)c(I)c3)nc21 (stereo not shown) [Example 465]	100	8.8	260	76	56	–	–	–
CCC(CC)n1c(=O)ccc2cnc(Nc3ccc(O)c(C(=O)O)c3)nc21 [Example 524, 5-[8-(1-Ethyl-propyl)-7-oxo-7,8-dihydro-pyrido[2,3-d]pyrimidin-2-ylamino]-2-hydroxy-benzoic acid]	2000	290	650	620	450	–	–	–
CC(C)n1c(=O)ccc2cnc(Nc3ccc4c(c3)CCCC4=O)nc21 [Example 431, 8-Isopropyl-2-(5-oxo-5,6,7,8-tetrahydro-naphthalen-2-ylamino)-8H-pyrido[2,3-d]pyrimidin-7-one]	140	23	300	170	120	–	–	–
8-Cyclopentyl-2-(3-fluoro-4-methoxy-phenylamino)-8H-pyrido[2,3-d]pyrimidin-7-one [Example 542]	9.5	7.7	–	–	–	75	85	35
CCC(C)n1c(=O)ccc2cnc(Nc3ccc4[nH]ncc4c3)nc21 (stereo not shown) [Example 448, 8-sec-Butyl-2-(1H-indazol-5-ylamino)-8H-pyrido[2,3-d]pyrimidin-7-one]	46	8.5	52	26.5	20	–	–	–
CCCn1c(=O)ccc2cnc(Nc3cccc(I)c3)nc21 [Example 316, 2-(3-Iodo-phenylamino)-8-propyl-8H-pyrido[2,3-d]pyrimidin-7-one]	492	56.6	296	92.4	62.5	–	–	–
CCCCn1c(=O)ccc2cnc(Nc3cccc(C(F)(F)F)c3)nc21 [Example 373, 8-Butyl-2-(3-trifluoromethyl-phenylamino)-8H-pyrido[2,3-d]pyrimidin-7-one]	2150	214	1150	430	208	–	–	–
CC(C)n1c(=O)ccc2cnc(Nc3ccc(NC(=O)OC(C)(C)C)cc3)nc21 [Example 411, [4-(8-Isopropyl-7-oxo-7,8-dihydro-pyrido[2,3-d]pyrimidin-2-ylamino)-phenyl]-carbamic acid tert-butyl ester]	180	177	263	273	200	–	–	–
CCC(CC)n1c(=O)ccc2cnc(Nc3ccc(F)c(C(F)(F)F)c3)nc21 [Example 502, 8-(1-Ethyl-propyl)-2-(4-fluoro-3-trifluoromethyl-phenylamino)-8H-pyrido[2,3-d]pyrimidin-7-one]	350	21	360	100	68	–	–	–
Cc1cc(C)cc(Nc2ncc3ccc(=O)n(C4CCCC4)c3n2)c1 [Example 544, 8-Cyclopentyl-2-(3,5-dimethyl-phenylamino)-8H-pyrido[2,3-d]pyrimidin-7-one]	120	23	350	85	82	–	–	–
CCC(CC)n1c(=O)ccc2cnc(Nc3ccc4[nH]ccc4c3)nc21 [Example 492, 8-(1-Ethyl-propyl)-2-(1H-indol-5-ylamino)-8H-pyrido[2,3-d]pyrimidin-7-one]	124	86	600	145	163	–	–	–
CC(C)n1c(=O)ccc2cnc(Nc3ccc(C(F)(F)F)cc3)nc21 [Example 443, 8-Isopropyl-2-(4-trifluoromethyl-phenylamino)-8H-pyrido[2,3-d]pyrimidin-7-one]	320	71	200	520	170	–	–	–
CCCCn1c(=O)ccc2cnc(Nc3ccc(NC(=O)OC(C)(C)C)cc3)nc21 [Example 381, [4-(8-Butyl-7-oxo-7,8-dihydro-pyrido[2,3-d]pyrimidin-2-ylamino)-phenyl]-carbamic acid tert-butyl ester]	400	205	515	150	133	–	–	–
O=c1ccc2cnc(Nc3ccc(Cl)c(Cl)c3)nc2n1C1CCCC1 [Example 532, 8-Cyclopentyl-2-(3,4-dichloro-phenylamino)-8H-pyrido[2,3-d]pyrimidin-7-one]	1500	210	780	510	630	–	–	–
CCCCn1c(=O)ccc2cnc(Nc3ccc(F)cc3)nc21 [Example 387, 8-Butyl-2-(4-fluoro-phenylamino)-8H-pyrido[2,3-d]pyrimidin-7-one]	285	108	160	128	80	–	–	–
